Laboratory results published in patent publication US20060204460A1, “Lip gloss composition” (KOKYU ALCOHOL KOGYO CO., LTD., priority 2005, published 2006).

Experiment: Viscosity of liquid oil (E) on a Brookfield viscometer
Format: physicochemical
Details: at 25 degrees C., No. 2 spindle, 12 rpm
Description: The liquid oil having a viscosity of from 5 to 400 mPa·s at 25 degrees C., (E), is known and commonly used in cosmetics. The viscosity of the liquid oil at 25 degrees C. is preferably 8 to 350 mPa·s, and more preferably 12 to 300 mPa·s. […] The viscosity is measured on a Brookfield viscometer using No. 2 spindle at 12 rpm.

isononyl ethylhexanoate
Viscosity: 5 mPa·s

CC(C)CCCC(C)CCCC(C)CCCCC(C)CCCC(C)CCCC(C)C (stereo not drawn) [squalane]
Viscosity: 32 mPa·s

CCCCC(CC)C(=O)OCC(COC(=O)C(CC)CCCC)(COC(=O)C(CC)CCCC)COC(=O)C(CC)CCCC (stereo not drawn) [pentaerythrityl tetraethylhexanoate]
Viscosity: 110 mPa·s

pentaerythrityl tetraisostearate
Viscosity: 290 mPa·s

trimethylolpropane triisostearate
Viscosity: 180 mPa·s

ethylhexyl hydroxystearate
Viscosity: 64 mPa·s

CC(C)CCCCCCCCCCCCCCCOC(=O)C(C)(C)C [isostearyl neopentanoate]
Viscosity: 15 mPa·s

CC(C)CCCCCCCCCCOC(=O)CCCCCC(C)C [isotridecyl isononanoate]
Viscosity: 12 mPa·s

CCCCCCCCCCCCCCCC(=O)OC(C)C [isopropyl palmitate]
Viscosity: 7 mPa·s

CC(C)CCCCCCCCCCCCCCCOC(=O)CCCCCCCCCCCCCCC(C)C [isostearyl isostearate]
Viscosity: 40 mPa·s

CC(C)CCCCCCOC(=O)CCCCCC(C)C [isononyl isononanoate]
Viscosity: 6 mPa·s

octyldodecyl stearoyloxystearate
Viscosity: 90 mPa·s

triisostearine
Viscosity: 185 mPa·s

CCCCCCCCCC(=O)OCC(C)(C)COC(=O)CCCCCCCCC [neopentylglycol dicaprate]
Viscosity: 19 mPa·s

diisopropyl dilinoleate
Viscosity: 310 mPa·s

hexyldecyl isostearate
Viscosity: 34 mPa·s

CCCCCCCCCCCCCCCCOC(=O)C(CC)CCCC (stereo not drawn) [cetyl ethylhexanoate]
Viscosity: 13 mPa·s

CCCCC(CC)C(=O)OCC(COC(=O)C(CC)CCCC)OC(=O)C(CC)CCCC (stereo not drawn) [triethyl hexanoin]
Viscosity: 35 mPa·s

CCCCC(CC)C(=O)OCC(C)(C)COC(=O)C(CC)CCCC (stereo not drawn) [neopentylglycol diethylhexanoate]
Viscosity: 13 mPa·s

hexyldecyl ethylhexanoate
Viscosity: 11 mPa·s

trimethylolpropane triethylhexanoate
Viscosity: 52 mPa·s

octyldodecyl neopentanoate
Viscosity: 15 mPa·s

octyldodecyl neodecanoate
Viscosity: 25 mPa·s

CC(C)CCCCCCCCCCCCCCC(=O)OC(C)C [isopropyl isostearate]
Viscosity: 10 mPa·s
